The source of these data is ChEMBL document CHEMBL1148186, “Structure of Benthophoenin, a New Free Radical Scavenger Produced by Streptomyces prunicolor” (J Nat Prod, 1993).

Assay [1] in a line: Antioxidant activity assessed as inhibition of AAPH-induced rat erythrocytes hemolysis. The format is functional, cell-based. The conditions noted are these: erythrocyte.
Assay [2] can be described thus: Antioxidant activity assessed as free radical scavenging activity. It is filed as functional.

In brackets after ≈: the same amount, converted by molar mass.

One may read the IC50 as the point on the concentration scale where inhibition reaches its midpoint. In the case of `CC(C)=CCC/C(C)=C/CN1c2cc(C(=O)c3ccccc3)ccc2Nc2c(C(=O)O)cc(C(=O)c3ccccc3)cc21` [BENTHOPHOENIN], the IC50 came to 0.8 µg/mL (≈ 1.4 µM) in assay [1] and 0.15 µg/mL (≈ 0.263 µM) in assay [2]. Consider VITAMIN E, for which the IC50 in assay [2] was found to be 10.8 µg/mL.
